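Five concentrations, 48 hours, 96-well plates. Definition used: TGI = concentration required for complete inhibition of growth.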 A value given as a limit tells only on which side of the number the result lay.

The source of these data is PubChem BioAssay (NCI).

Common to all, as to assay: DTP human tumour cell line panel, 48 h
Assay [1] has as its system DLD-1 colon.
Assay [2] deals with COLO 205 colon.
The subject of assay [3] is SW-620 colon.
Assay [4] relates to SK-OV-3 ovarian.
Assay [5] relates to HOP-62 NSCLC.
The subject of assay [6] is EKVX NSCLC.
Assay [7] concerns A549 NSCLC.
Assay [8] has as its system OVCAR-5 ovarian.
The test system of assay [9] is HCT-116 colon.
Assay [10] relates to RPMI-8226 leukemia.
Assay [11] relates to KM20L2 colon.

One may read the TGI as the concentration giving total growth inhibition. A low value points to more potent growth arrest. Take `COc1ccc(C[C@H](N)C(=O)N2C[C@H](CO)C[C@H](n3ccc(=O)[nH]c3=O)C2)cc1`: the TGI in [1], in [2], in assay [3], in [4], in [5] and in assay [6] was above 100 µM in each case. Further, the TGI in assay [7], in assay [8], in [9], in [10] and in assay [11] was above 100 µM throughout.
Consider `COc1ccc(C[C@H](N)C(=O)N2C[C@H](CO)C[C@H](n3cnc4c(N(C)C)ncnc43)C2)cc1`, for which the TGI in assay [1], in assay [2], in [3], in assay [4], in assay [5] and in [6] was above 100 µM in each case. The TGI in assay [7], in [8], in [9], in [10] and in [11] was above 100 µM throughout.
Regarding `CCNC(=O)/C=C/CCC#Cc1ccc(-c2ccc(-c3cccs3)s2)s1`, the TGI in [1] is above 100 µM; in assay [2], 3.19 µM; in [3], above 100 µM; in assay [4], above 100 µM; in [5], above 100 µM; in assay [6], above 100 µM. The total growth inhibition concentration (TGI) in [7], in [8], in assay [9], in assay [10] and in [11] was above 100 µM throughout.
On to `CC1CCc2c(sc3ncnc(N/N=C/c4ccc(Cl)c(Cl)c4)c23)C1` (configuration not stated), for which the concentration for total growth inhibition (TGI) was above 100 µM in assay [1]; 71.6 µM in assay [2]; above 100 µM in assay [3]; 89.6 µM in [4]; above 100 µM in [5]; 89.8 µM in assay [6]. For the same molecule, the total growth inhibition concentration (TGI) in assay [7] is 34.4 µM; in assay [8], above 100 µM; in assay [9], above 100 µM; in assay [10], above 100 µM; in assay [11], above 100 µM.
Turning to `CC(=O)NC1=C(C)C(=O)c2c(nc3n2CCC3O)C1=O` (configuration not stated), the total growth inhibition concentration (TGI) is above 100 µM in assay [1]; above 100 µM in assay [2]; above 100 µM in [3]; above 100 µM in [4]; above 100 µM in [5]; 51.4 µM in assay [6]. Moreover, the total growth inhibition concentration (TGI) was above 100 µM in [7]; above 100 µM in [8]; 67.7 µM in [9]; 50.6 µM in assay [10]; above 100 µM in [11].
For the molecule `CSc1nc(NC2OCC(O)C(O)C2O)c(N)c(=O)n1C` (configuration not stated), the TGI in [1], in assay [2], in assay [3], in [4], in [5] and in [6] was above 100 µM in each case. For the same molecule, the total growth inhibition concentration (TGI) in [7], in [8], in assay [9], in assay [10] and in assay [11] was above 100 µM in each case.
With `CC(=O)OCc1cc(=O)n(C)c2c3c4c(cc12)c(C)cc(=O)n4CO3`, the total growth inhibition concentration (TGI) in assay [1] turned out to be 26.3 µM; in assay [2], 4.23 µM; in [3], 15.6 µM; in assay [4], 51 µM; in [5], 4.3 µM; in [6], 11.2 µM. Moreover, the TGI in assay [7] came to 21.1 µM; in assay [8], 20.5 µM; in assay [9], 20 µM; in assay [10] it was 11.1 µM; in [11] it was 15.8 µM.
